Where a SMILES comes first, the peptide text is derived from it.
Tests used:
HLA-B*40:01 = HLA-B*40:01 (Homo sapiens, UniProt P01889, A65T/A93T/A95T/D138N/D98Y/E176V/E69K/N87E/Q56L/Q94N/R180L/S121R/S35A/S48T/T167S/V36M/W171L/Y33H/Y91S); test: biochemical; format: binding
HLA-B*44:02 = HLA-B*44:02 (Homo sapiens, UniProt P01889, A223V/A65T/A93T/A95T/D201E/D98Y/E176V/E187L/E204Q/E69K/G107R/H137Y/K202T/L105A/L119I/N104T/N87E/Q56L/Q94N/R106L/R155S/R180D/S101N/S121R/S35A/S48T/T118I/V36M/W191S/Y140D/Y91S); test: biochemical; format: binding
HLA-A*02:01 = HLA-A*02:01 (Homo sapiens, UniProt P04439, D140Y/D185E/D98H/E176V/E277Q/G131W/G231S/I119V/I121R/I166T/I218V/L300P/L318F/N151K/N90K/P208A/P217A/Q86G/Q94H/R138H/R169H/T345S); test: biochemical; format: binding
HLA-A*02:03 = HLA-A*02:03 (Homo sapiens, UniProt P04439, A173T/D140Y/D185E/D98H/E277Q/G131W/G231S/I119V/I121R/I166T/I218V/L180W/L300P/L318F/N151K/N90K/P208A/P217A/Q86G/Q94H/R138H/R169H/T345S); test: biochemical; format: binding
HLA-A*02:06 = HLA-A*02:06 (Homo sapiens, UniProt P04439, D140Y/D185E/D98H/E176V/E277Q/F33Y/G131W/G231S/I119V/I121R/I166T/I218V/L300P/L318F/N151K/N90K/P208A/P217A/Q86G/Q94H/R138H/R169H/T345S); test: biochemical; format: binding
[1] = system: Mafa-A63:02 MHC class I molecules; format: binding, Macaca fascicularis
HLA-B*15:01 = HLA-B*15:01 (Homo sapiens, UniProt P01889, A329T/A93T/A95T/C349S/D201E/D98Y/E187L/E204Q/E69M/E70A/K202T/N87E/Q94N/R155S/R180W/S121R/S35A/S48A/V306I/V36M/Y140S/Y91S); test: biochemical; format: binding
HLA-A*23:01 = HLA-A*23:01 (Homo sapiens, UniProt P04439, D101N/D140Y/D185E/E176V/E190D/F33S/G103R/G107R/H175R/I119L/I121M/I306V/K168Q/K335N/L105A/L300P/N151K/N90K/P307H/Q86E/Q94H/R106L/R138H/R89G/T104I/T345S/V100E/W191G/Y123F); test: biochemical; format: binding
HLA-A*24:02 = HLA-A*24:02 (Homo sapiens, UniProt P04439, D101N/D140Y/D185E/E176V/E190D/F33S/G103R/G107R/I119L/I121M/I306V/K335N/L105A/L180Q/L300P/N151K/N90K/Q86E/Q94H/R106L/R138H/R89G/T104I/T345S/V100E/W191G/Y123F); test: biochemical; format: binding
HLA-A*68:02 = HLA-A*68:02 (Homo sapiens, UniProt P04439, A269V/D140Y/D185E/E176V/E277Q/E87N/F33Y/G231S/I121R/I166T/I218V/L180W/L300P/L318F/N151K/P208A/P217A/Q86R/R138H/R169H/S129P/T345S/V36M); test: biochemical; format: binding
HLA-A*32:01 = HLA-A*32:01 (Homo sapiens, UniProt P04439, A270S/D101S/D185E/E176V/E277Q/F133L/G103R/G107R/G231S/H175R/I121M/I218V/I322F/K168Q/L105A/L300P/L318F/M331R/P208A/P217A/Q94H/R106L/R138Q/S129P/T104I/T323A/T345S/V100E/V321M/V358M); test: biochemical; format: binding
HLA-B*07:02 = HLA-B*07:02 (Homo sapiens, UniProt P01889); test: biochemical; format: binding
HLA-A*30:01 = HLA-A*30:01 (Homo sapiens, UniProt P04439, D140H/D185E/E176W/F33S/G80R/H175R/K168Q/R138E/R41S); test: biochemical; format: binding
HLA-A*03:01 = HLA-A*03:01 (Homo sapiens, UniProt P04439); test: biochemical; format: binding

CC(C)C[C@H](NC(=O)[C@H](CCC(N)=O)NC(=O)[C@@H]1CCCN1C(=O)[C@H](Cc1ccc(O)cc1)NC(=O)[C@H](CC(C)C)NC(=O)CNC(=O)[C@H](Cc1c[nH]cn1)NC(=O)[C@H](CCC(=O)O)NC(=O)[C@@H](N)CC(C)C)C(=O)O (H-LEHGLYPQL-OH)
IC50 (HLA-B*40:01): 14 nM | IC50 (HLA-B*44:02): 3.4 nM

CC(C)C[C@H](NC(=O)[C@H](Cc1ccccc1)NC(=O)[C@H](CC(C)C)NC(=O)[C@H](CO)NC(=O)[C@H](CS)NC(=O)[C@H](Cc1ccccc1)NC(=O)[C@H](CO)NC(=O)[C@H](CC(C)C)NC(=O)[C@@H](N)Cc1ccccc1)C(=O)O [reference compound] (H-FLSFCSLFL-OH)
IC50 (HLA-A*02:01): 1.8 nM | IC50 (HLA-A*02:03): 29 nM | IC50 (HLA-A*02:06): 121 nM

GPRKPIKCW
score on the t-SNE T2 axis (Mafa-A063 binding affinity and stability) [1]: scored high

CC[C@H](C)[C@H](NC(=O)[C@@H](N)CC(C)C)C(=O)N[C@H](C(=O)N[C@@H](CCCCN)C(=O)N[C@H](C(=O)N[C@H](C(=O)N[C@@H](CC(C)C)C(=O)N[C@@H](CCC(=O)O)C(=O)N[C@@H](Cc1ccccc1)C(=O)O)C(C)C)[C@@H](C)O)C(C)C (H-LIVKTVLEF-OH)
IC50 (HLA-B*15:01): 0.8 nM | IC50 (HLA-A*23:01): 109 nM

CC[C@H](C)[C@H](NC(=O)[C@H](CC(C)C)NC(=O)[C@@H]1CCCN1C(=O)[C@H](CO)NC(=O)[C@H](Cc1ccc(O)cc1)NC(=O)[C@@H](N)Cc1c[nH]cn1)C(=O)N[C@@H](CC(C)C)C(=O)N[C@@H](C)C(=O)N[C@@H](CC(C)C)C(=O)O [HL9] (H-HYSPLILAL-OH)
IC50 (HLA-A*24:02): 64 nM

CC[C@H](C)[C@H](NC(=O)[C@H](C)NC(=O)[C@H](CO)NC(=O)[C@H](CC(C)C)NC(=O)[C@H](CCC(N)=O)NC(=O)[C@@H]1CCCN1C(=O)[C@H](Cc1ccc(O)cc1)NC(=O)[C@H](CC(C)C)NC(=O)CN)C(=O)O (H-GLYPQLSAI-OH)
IC50 (HLA-A*02:01): 5.9 nM | IC50 (HLA-A*02:03): 1.4 nM | IC50 (HLA-A*02:06): 6.9 nM

RPKVPLRTM
score on the t-SNE T2 axis (Mafa-A063 binding affinity and stability) [1]: scored high

CC(C)[C@H](NC(=O)[C@H](CCCNC(=N)N)NC(=O)[C@H](C)NC(=O)[C@H](Cc1ccccc1)NC(=O)[C@@H]1CCCN1C(=O)[C@H](C)NC(=O)[C@H](Cc1ccc(O)cc1)NC(=O)[C@H](CCC(=O)O)NC(=O)CN)C(=O)O (H-GEYAPFARV-OH)
IC50 (HLA-B*40:01): 107 nM | IC50 (HLA-B*44:02): 214 nM

CC(C)C[C@H](NC(=O)[C@H](CO)NC(=O)[C@H](CS)NC(=O)[C@H](Cc1ccccc1)NC(=O)[C@H](CO)NC(=O)[C@H](CC(C)C)NC(=O)[C@H](Cc1ccccc1)NC(=O)[C@@H](N)CC(C)C)C(=O)N[C@@H](Cc1ccccc1)C(=O)O [reference compound] (H-LFLSFCSLF-OH)
IC50 (HLA-A*24:02): 633 nM | IC50 (HLA-A*23:01): 33 nM

CC[C@H](C)[C@H](NC(=O)[C@H](C)NC(=O)[C@H](CO)NC(=O)[C@H](CC(C)C)NC(=O)[C@@H](N)CCC(N)=O)C(=O)N[C@@H](C)C(=O)N[C@@H](CC(C)C)C(=O)NCC(=O)N[C@H](C(=O)O)C(C)C (H-QLSAIALGV-OH)
IC50 (HLA-A*02:01): 3.9 nM | IC50 (HLA-A*68:02): 11 nM | IC50 (HLA-A*32:01): 81 nM | IC50 (HLA-A*02:03): 4.4 nM | IC50 (HLA-A*02:06): 12 nM

CC[C@H](C)[C@H](NC(=O)[C@H](C)NC(=O)[C@H](CO)NC(=O)[C@H](CC(C)C)NC(=O)[C@H](CCC(N)=O)NC(=O)[C@@H]1CCCN1C(=O)[C@H](Cc1ccc(O)cc1)NC(=O)[C@@H](N)CC(C)C)C(=O)N[C@@H](C)C(=O)N[C@@H](CC(C)C)C(=O)O [LYPQLSAIAL, reference compound] (H-LYPQLSAIAL-OH)
IC50 (HLA-B*07:02): 134 nM

HPAQTSQW
score on the t-SNE T2 axis (Mafa-A063 binding affinity and stability) [1]: scored high

CC[C@H](C)[C@H](NC(=O)[C@H](Cc1ccccc1)NC(=O)[C@H](CCC(=O)O)NC(=O)[C@H](CC(C)C)NC(=O)[C@@H](NC(=O)[C@@H](N)[C@@H](C)O)C(C)C)C(=O)N[C@@H](CC(C)C)C(=O)N[C@@H](CCC(N)=O)C(=O)N[C@@H](CCCCN)C(=O)O (H-TVLEFILQK-OH)
IC50 (HLA-A*30:01): 365 nM | IC50 (HLA-A*03:01): 19 nM

Reference: PMC10976095 (Vaccines, 2024)
